Measured values reported in PMC9181543, “Lysosomal Exocytosis of Olivacine on the Way to Explain Drug Resistance in Cancer Cells” (International Journal of Molecular Sciences, 2022).
Read-outs that look alike come from different tables or passages of the source.

Experiments:
A549 cells [1] = test: SRB assay (total protein content), A549; assay type: cell-based; details: Homo sapiens, 48 h incubation
Experimental: (§1) The anticancer activity of tested compounds was assessed on five human cell lines selected from the panel of tumor cell lines recommended by the National Cancer Institute: A495 (lung carcinoma), CCRF/CEM (acute lymphoblastic leukemia), LoVo and LoVo/DX (two types of colorectal: non-resistant and resistant to doxorubicin), and MCF-7 (breast adenocarcinoma). In addition, the NHDF cell line (normal human dermal fibroblasts) was used to estimate cytotoxicity to noncancer cells. The A549, CCRF/CEM, LoVo, LoVo/DX, and MCF-7 cells were obtained from ECACC, and NHDF cells from LONZA, Belgium. The A549 and MCF-7 cells were grown in EMEM medium, CCRF/CEM cells in RPMI-1640, LoVo and LoVo/DX cells in DMEM/F-12, and NHDF cells in DMEM without phenol red. The cells were seeded in […] in the biological assay, as recommended by the National Cancer Institute. All culture media were supplemented with L-glutamine, penicillin, streptomycin, and 10% fetal bovine serum (FBS). Cells were incubated at 37 °C and 5% CO2. One of the most popular in vitro tests to evaluate the activity of compounds with potential antitumor activity is the SRB assay. […] Growth inhibition was calculated following the NCI guidelines and expressed as the GI50 ratio, i.e., the concentration of the compound in which the amount of protein was reduced by half compared with the control.

LoVo/DX cells = test: SRB assay (total protein content), LoVo/DX; assay type: cell-based; details: Homo sapiens, LoVo/DX cells (doxorubicin-resistant), 48 h incubation
Experimental: as §1, with “assay. The sulforhodamine B dye is used, which binds to the protein at the appropriate pH. The assay allows for assessing cell mass and, indirectly, their proliferation. The advantage of the assay is that it measures cellular protein content and not the activity of any enzymes. The SRB assay was carried out according to the National Cancer Institute procedure. Cells were incubated in a culture medium for 24 h in 96-well plates. After 24 h, the control plate for each cell line was fixed with TCA to evaluate cell culture before treatment with tested compounds. […] Cell cultures were then fixed by adding 50% TCA at 4 °C for 1 h. After removing the supernatant, the plates were washed with water and dried.” for “assay.”

A549 cells [2] = test: MTT assay (mitochondrial activity), A549; assay type: cell-based; details: Homo sapiens
Experimental: (§2) The anticancer activity of tested compounds was assessed on five human cell lines selected from the panel of tumor cell lines recommended by the National Cancer Institute: A495 (lung carcinoma), CCRF/CEM (acute lymphoblastic leukemia), LoVo and LoVo/DX (two types of colorectal: non-resistant and resistant to doxorubicin), and MCF-7 (breast adenocarcinoma). In addition, the NHDF cell line (normal human dermal fibroblasts) was used to estimate cytotoxicity to noncancer cells. The A549, CCRF/CEM, LoVo, LoVo/DX, and MCF-7 cells were obtained from ECACC, and NHDF cells from LONZA, Belgium. The A549 and MCF-7 cells were grown in EMEM medium, CCRF/CEM cells in RPMI-1640, LoVo and LoVo/DX cells in DMEM/F-12, and NHDF cells in DMEM without phenol red. The cells were seeded in […] in the biological assay, as recommended by the National Cancer Institute. All culture media were supplemented with L-glutamine, penicillin, streptomycin, and 10% fetal bovine serum (FBS). Cells were incubated at 37 °C and 5% CO2. An assessment of the mitochondrial cell activity after applying tested compounds was carried out using the test MTT assay, recommended in the ISO 10993-5:2009 standard. As in the SRB assay, the cells were exposed to tested compounds after 24 h of initial incubation in 96-well plates. The MTT solution (1 mg/mL) was added to each well, and cells were incubated for 2 h. Finally, the supernatant was removed, and the formazan crystals were dissolved in isopropanol. After 30 min, absorbance at 570 nm in Victor2 microplate reader (PerkinElmer). Cell viability was determined as the IC50 ratio, i.e., the concentration of the compound in which the viability was reduced by half compared with the control.

MCF-7 cells [3] = test: MTT assay (mitochondrial activity), MCF-7; assay type: cell-based; details: Homo sapiens, MCF7
Experimental: as §2

A549 cells [4] = test: Proton pump blocking test (omeprazole) for lysosomal exocytosis; assay type: cell-based, human; details: for intracellular localisation: LysoTracker staining
Experimental: To assess whether the exocytosis of olivacine and ellipticine from cancer cells is lysosomal, a proton pump blocking test was performed. Omeprazole was added into A549 cells at a concentration of 200 µM for 1 h. The cell culture was then washed twice with PBS, and the cells were treated with tested compounds. The cell culture was assessed using an Evos FL microscope. The lysosomes were stained using LysoTracker™ Deep Red kit (L12492; Invitrogen). Cultured cells were evaluated using an Evos FL microscope, taking photos every 15 min. After treatment with olivacine or olivacine and omeprazole, analysis of mean cell fluorescence was performed from five independent replicates. In addition, 14 pictures were taken from each replicate, and 100 cells were analyzed by photomicrography using the ImageJ platform.

CCRF/CEM cells [5] = tested on: CCRF/CEM cells; set-up: method as in PMID 11755121; details: 48 h exposure; cited from earlier work
MCF-7 cells [6] = tested on: MCF-7 cells; set-up: method as in PMID 15896464; details: cited from earlier work
pancreatic cancer cells = tested on: pancreatic cancer cells; set-up: method as in PMID 10737712; details: 1 μM; cited from earlier work
CCRF/CEM cells [7] = tested on: CCRF/CEM cells; set-up: method as in PMID 24898668; details: cited from earlier work
A549 cells [8] = test: Cell morphology, microscopic observation, A549; assay type: cell-based, human; details: for cell morphology: 24 h incubation
Experimental: (§3) Olivacine, similar to ellipticine, is a compound with fluorescent properties. Therefore, by analyzing the intensity of fluorescence over time, it is possible to assess the cellular pharmacokinetics of the compounds. At the same time, cell morphology was also assessed. The cells were seeded into a 96-well plate and cultured for 24 h (37 °C, 5% CO2) for cell adhesion to the surface and regeneration. […] The culture plate was placed under a Juli microscope, and the device with the plate inside was put in the CO2 incubator. Pictures were taken every 15 min for 24 h. We have prepared software that allowed us to measure the fluorescence intensity of the indicated cells. Fluorescence analysis was performed for all images (every 15 min) during a period of rapid change in fluorescence intensity and less often at a later period when it stabilized. Three independent experiments were carried out, always analyzing 50 selected cells.

NHDF cells = test: Cell morphology, microscopic observation, NHDF; assay type: cell-based, human; details: NHDF normal cells, 24 h incubation
Experimental: as §3

[9] = 1 h pre-incubation with 200 µM omeprazole, compound 10 µM

cell morphology (NHDF cells; 5 μM) | duration of blockage of exocytosis after omeprazole (A549 cells [4]; [9]) | SMILES | GI50 (A549 cells [1]) [µM] | GI50 (LoVo/DX cells) [µM] | IC50 (A549 cells [2]) [µM] | IC50 (MCF-7 cells [3]) [µM] | time after which exocytosis was observed after omeprazole (A549 cells [4]; [9]) [h] | IC50 (CCRF/CEM cells [5]) [µM] | IC50 (MCF-7 cells [6]) [µM] | cell cycle effect (pancreatic cancer cells) | cell cycle effect (CCRF/CEM cells [7]) | cell morphology (A549 cells [8]; 2 μM) | cell morphology (A549 cells [8]; 20 μM) | concentration at which growth inhibition is visible (A549 cells [8]; microscopic observation, 24 h) [µM] | cell morphology (NHDF cells; 2 μM) | cell morphology (NHDF cells; 20 μM) | intracellular localisation (A549 cells [4]; with omeprazole) | intracellular localisation (A549 cells [4]; without omeprazole)
 |  | Cc1c2ccncc2c(C)c2c1[nH]c1ccccc12 [Ellipticine] | 0.72 ± 0.06 | 0.75 ± 0.22 | 12.9 ± 2.36 | 4.67 ± 0.53 | > 3 | 4.7 ± 0.48 | 1.52 | arrest cell cycle progression in both G1 and G2/M phases | stop the cell cycle in the G0/G1 phase |  |  |  |  |  |  | 
normal | at least 3 h | Cc1nccc2c(C)c3[nH]c4ccccc4c3cc12 [Olivacine, 1,5-dimethyl-6H-pyrido[4,3-b]carbazole] | 0.93 ± 0.06 | 0.82 ± 0.08 | 17.8 ± 7.82 | 18.5 ± 2.41 |  |  |  |  |  | Cytosol degradation | completely degraded | 2 | did not negatively affect cell morphology | only a few fibroblast cells have been disintegrated | in the cytoplasm and not in the lysosomes | accumulation of olivacine in the lysosomes
